Results as given in patent US20130030001A1 (priority 2008, published 2013).
Structures can show the parent of a compound that is named as a salt.

How the values were obtained:
[1] = target: T1, human muscarinic acetylcholine M3 receptor (Homo sapiens, UniProt P20309); assay: biochemical; type: binding
T1 construct: expressed in transfected cells; host or cells: CHO-K1 (Chinese Hamster Ovary) cell membranes

in vitro = conditions: human, plasma, pH 7.4

T1 sequence (P20309 whole entry): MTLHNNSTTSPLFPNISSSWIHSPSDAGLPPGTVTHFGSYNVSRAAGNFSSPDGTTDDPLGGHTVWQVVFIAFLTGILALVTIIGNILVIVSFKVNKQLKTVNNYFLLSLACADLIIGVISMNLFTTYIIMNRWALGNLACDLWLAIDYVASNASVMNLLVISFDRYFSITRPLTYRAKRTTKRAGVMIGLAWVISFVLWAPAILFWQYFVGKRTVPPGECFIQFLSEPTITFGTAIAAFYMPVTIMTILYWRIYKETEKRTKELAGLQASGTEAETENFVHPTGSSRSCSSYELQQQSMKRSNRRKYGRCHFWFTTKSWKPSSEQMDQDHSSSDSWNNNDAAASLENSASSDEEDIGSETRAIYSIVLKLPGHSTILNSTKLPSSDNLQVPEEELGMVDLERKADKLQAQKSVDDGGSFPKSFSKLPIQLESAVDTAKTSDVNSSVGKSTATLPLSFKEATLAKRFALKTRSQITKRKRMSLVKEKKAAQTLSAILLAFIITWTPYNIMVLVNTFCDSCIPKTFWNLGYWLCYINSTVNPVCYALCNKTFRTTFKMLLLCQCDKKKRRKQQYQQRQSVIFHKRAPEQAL

Compound	IC50 ([1]; M3 binding IC50) [nM]	fraction unbound (in vitro)	IC50 ([1]; pIC50) [nM]
O=C(C[N+]12CCC(CC1)[C@@H](OC(=O)C1(c3ccccc3)CCCCCC1)C2)Nc1ccccc1 [Example 21, (R)-1-Phenylcarbamoylmethyl-3-(1-phenyl-cycloheptanecarbonyloxy)-1-azonia-bicyclo[2.2.2]octane bromide]	< 2	0.006	–
O=C(C[N+]12CCC(CC1)[C@@H](OC(=O)C1(c3ccccc3)CCCCCC1)C2)Nc1ccccn1 [Example 15, (R)-3-(1-Phenyl-cycloheptanecarbonyloxy)-1-(pyridin-2-ylcarbamoylmethyl)-1-azonia-bicyclo[2.2.2]octane bromide]	–	0.039	–
O=C(C[N+]12CCC(CC1)[C@@H](OC(=O)C1(c3cccc(F)c3)CCCCCC1)C2)Nc1ccon1 [Example 13, (R)-3-[1-(3-Fluoro-phenyl)-cycloheptanecarbonyloxy]-1-(isoxazol-3-ylcarbamoylmethyl)-1-azonia-bicyclo[2.2.2]octane bromide]	–	0.068	0.0794
O=C(C[N+]12CCC(CC1)[C@@H](OC(=O)C1(c3ccccc3)CCCCCC1)C2)Nc1ccc(F)cn1 [Example 17, (R)-1-[(5-Fluoro-pyridin-2-ylcarbamoyl)-methyl]-3-(1-phenyl-cycloheptanecarbonyloxy)-1-azonia-bicyclo[2.2.2]octane chloride]	–	0.024	–
Cc1cc(NC(=O)C[N+]23CCC(CC2)[C@@H](OC(=O)C2(c4ccccc4)CCCCCC2)C3)ccn1 [Example 20, (R)-1-[(2-Methyl-pyridin-4-ylcarbamoyl)-methyl]-3-(1-phenyl-cycloheptanecarbonyloxy)-1-azonia-bicyclo[2.2.2]octane chloride]	–	0.018	–
O=C(C[N+]12CCC(CC1)[C@@H](OC(=O)C1(c3cccs3)CCCCCC1)C2)Nc1cccnn1 [Example 5, (R)-1-(Pyridazin-3-ylcarbamoylmethyl)-3-(1-thiophen-2-yl-cycloheptanecarbonyloxy)-1-azonia-bicyclo[2.2.2]octane bromide]	< 2	–	0.398
O=C(O[C@@H]1C[N+]2(CCCOc3ccccc3)CCC1CC2)C1(c2ccccc2)CCCCCC1 [Example 33, (S)-1-(3-Phenoxy-propyl)-3-(1-phenyl-cycloheptanecarbonyloxy)-1-azonia-bicyclo[2.2.2]octane formate]	2 to 10	–	–
O=C(C[N+]12CCC(CC1)[C@@H](OC(=O)C1(c3cccs3)CCCCCC1)C2)Nc1cnccn1 [Example 11, (R)-1-(Pyrazin-2-ylcarbamoylmethyl)-3-(1-thiophen-2-yl-cycloheptanecarbonyloxy)-1-azonia-bicyclo[2.2.2]octane bromide]	< 2	0.048	–
O=C(C[N+]12CCC(CC1)[C@@H](OC(=O)C1(c3ccccc3)CCCCCC1)C2)Nc1ncns1 [Example 56, (R)-3-(1-Phenyl-cycloheptanecarbonyloxy)-1-([1,2,4]thiadiazol-5-ylcarbamoylmethyl)-1-azonia-bicyclo[2.2.2]octane chloride]	2 to 10	–	–
Cc1cccc(NC(=O)C[N+]23CCC(CC2)[C@@H](OC(=O)C2(c4ccccc4)CCCCCC2)C3)n1 [Example 30, (R)-1-[(6-Methyl-pyridin-2-ylcarbamoyl)-methyl]-3-(1-phenyl-cycloheptanecarbonyloxy)-1-azonia-bicyclo[2.2.2]octane chloride]	< 2	–	–
O=C(C[N+]12CCC(CC1)[C@@H](OC(=O)C1(c3ccccc3)CCCCCC1)C2)NCCOc1cccc(F)c1 [Example 34, (R)-1-{[2-(3-Fluoro-phenoxy)-ethylcarbamoyl]-methyl}-3-(1-phenyl-cycloheptanecarbonyloxy)-1-azonia-bicyclo[2.2.2]octane bromide]	2 to 10	–	–
O=C(O[C@H]1C[N+]2(CCc3cnccn3)CCC1CC2)C1(c2ccccc2)CCCCCC1 [Example 32, (R)-3-(1-Phenyl-cycloheptanecarbonyloxy)-1-(2-pyrazin-2-yl-ethyl)-1-azonia-bicyclo[2.2.2]octane bromide]	2 to 10	–	–
Cc1ccc(NC(=O)C[N+]23CCC(CC2)[C@@H](OC(=O)C2(c4ccccc4)CCCCCC2)C3)nc1 [Example 18, (R)-1-[(5-Methyl-pyridin-2-ylcarbamoyl)-methyl]-3-(1-phenyl-cycloheptanecarbonyloxy)-1-azonia-bicyclo[2.2.2]octane chloride]	< 2	–	–
O=C(C[N+]12CCC(CC1)[C@@H](OC(=O)C1(c3cccs3)CCCCCC1)C2)Nc1cccc(F)c1 [Example 8, (R)-1-[(3-Fluoro-phenylcarbamoyl)-methyl]-3-(1-thiophen-2-yl-cycloheptanecarbonyloxy)-1-azonia-bicyclo[2.2.2]octane bromide]	< 2	–	–
Cc1ccccc1NC(=O)C[N+]12CCC(CC1)[C@@H](OC(=O)C1(c3ccccc3)CCCCCC1)C2 [Example 31, (R)-3-(1-Phenyl-cycloheptanecarbonyloxy)-1-(o-tolylcarbamoyl-methyl)-1-azonia-bicyclo[2.2.2]octane bromide]	2 to 10	–	–
O=C(C[N+]12CCC(CC1)[C@@H](OC(=O)C1(c3ccccc3)CCCCCC1)C2)Nc1ccc(C(F)(F)F)nn1 [Example 3, (R)-3-(1-Phenyl-cycloheptanecarbonyloxy)-1-[(6-trifluoromethyl-pyridazin-3-ylcarbamoyl)-methyl]-1-azonia-bicyclo[2.2.2]octane bromide]	2 to 10	–	–
O=C(O[C@H]1C[N+]2(CCOc3cccnc3)CCC1CC2)C1(c2ccccc2)CCCCCC1 [Example 29, (R)-3-(1-Phenyl-cycloheptanecarbonyloxy)-1-[2-(pyridin-3-yloxy)-ethyl]-1-azonia-bicyclo[2.2.2]octane formate]	2 to 10	–	–
CN(C(=O)C[N+]12CCC(CC1)[C@@H](OC(=O)C1(c3ccccc3)CCCCCC1)C2)c1ccccc1 [Example 39, (R)-1-[(Methyl-phenyl-carbamoyl)-methyl]-3-(1-phenyl-cycloheptanecarbonyloxy)-1-azonia-bicyclo[2.2.2]octane formate]	2 to 10	–	–
COc1ccc(COCC[N+]23CCC(CC2)[C@@H](OC(=O)C2(c4ccccc4)CCCCCC2)C3)cc1 [Example 36, (R)-1-[2-(4-methoxy-benzyloxy)-ethyl]-3-(1-phenyl-cycloheptanecarbonyloxy)-1-azonia-bicyclo[2.2.2]octane formate]	2 to 10	–	–
Cc1cc(NC(=O)C[N+]23CCC(CC2)[C@@H](OC(=O)C2(c4ccccc4)CCCCCC2)C3)ncn1 [Example 59, (R)-1-[(6-Methyl-pyrimidin-4-ylcarbamoyl)-methyl]-3-(1-phenyl-cycloheptanecarbonyloxy)-1-azonia-bicyclo[2.2.2]octane chloride]	2 to 10	–	–
O=C(C[N+]12CCC(CC1)[C@@H](OC(=O)C1(c3ccccc3)CCCCCC1)C2)Nc1ncccc1F [Example 53, (R)-1-[(3-Fluoro-pyridin-2-ylcarbamoyl)-methyl]-3-(1-phenyl-cycloheptanecarbonyloxy)-1-azonia-bicyclo[2.2.2]octane chloride]	2 to 10	–	–
O=C(O[C@H]1C[N+]2(CCOCCc3ccccc3)CCC1CC2)C1(c2ccccc2)CCCCCC1 [Example 37, (R)-1-(2-Phenethyloxy-ethyl)-3-(1-phenyl-cycloheptanecarbonyloxy)-1-azonia-bicyclo[2.2.2]octane bromide]	< 2	–	–
O=C(C[N+]12CCC(CC1)[C@@H](OC(=O)C1(c3ccccc3)CCCCCC1)C2)Nc1cc(F)cc(F)c1 [Example 35, (R)-1-[(3,5-Difluoro-phenylcarbamoyl)-methyl]-3-(1-phenyl-cycloheptanecarbonyloxy)-1-azonia-bicyclo[2.2.2]octane bromide]	2 to 10	–	–
O=C(C[N+]12CCC(CC1)[C@@H](OC(=O)C1(c3cccs3)CCCCCC1)C2)Nc1noc2ccccc12 [Example 10, (R)-1-(Benzo[d]isoxazol-3-ylcarbamoylmethyl)-3-(1-thiophen-2-yl-cycloheptanecarbonyloxy)-1-azonia-bicyclo[2.2.2]octane chloride]	< 2	–	–
Cc1ccc(NC(=O)C[N+]23CCC(CC2)[C@@H](OC(=O)C2(c4ccccc4)CCCCCC2)C3)cn1 [Example 1, (R)-1-[(6-Methyl-pyridin-3-ylcarbamoyl)-methyl]-3-(1-phenyl-cycloheptanecarbonyloxy)-1-azonia-bicyclo[2.2.2]octane chloride]	< 2	–	0.794
O=C(C[N+]12CCC(CC1)[C@@H](OC(=O)C1(c3ccccc3)CCCCCC1)C2)Nc1cncc(F)c1 [Example 28, (R)-1-[(5-Fluoro-pyridin-3-ylcarbamoyl)-methyl]-3-(1-phenyl-cycloheptanecarbonyloxy)-1-azonia-bicyclo[2.2.2]octane chloride]	2 to 10	–	–
